This note sets out measurements from ChEMBL document CHEMBL1125127 (J Med Chem, 1990).

By pIC50 is commonly meant the negative decadic logarithm of the IC50, by convention in mol/L. The low end stands for a large IC50, the high end for a small IC50. In general, IC50 refers to the concentration at which inhibition is half-maximal.

pIC50: −log10 of the molar value.

Experiment [1] addresses Beta-2 adrenergic receptor (Canis lupus familiaris, UniProt P54833). Nature of the experiment: Beta2-receptor selectivity in canine lung tissue in anesthetized dogs. The class given is functional.
Experiment [2] relates to Canis familiaris. Kind of experiment: Concentration that causes a 20% increase in APD95 (action potential duration at 95% repolarization) from control value in anesthetized dogs. The class given is functional, Canis lupus familiaris.
Experiment [3] concerns Canis familiaris. Nature of the experiment: Maximum change in […] from control value in anesthetized dogs; 10 uM. Type of experiment: functional, Canis lupus familiaris.
Experiment [4] deals with Canis familiaris. Nature of the experiment: Percent change in FRP from control at active dose 1.0-10 mg/kg administered intravenously.
The subject of experiment [5] is Canis familiaris. Nature of the experiment: Percent change in heart rate (HR) from control at active dose 1.0-10 mg/kg administered intravenously in conscious dogs.
Experiment [6] concerns Canis familiaris. Nature of the experiment: Percent change in blood pressure (BP) from control at active dose 1.0-10 mg/kg administered intravenously in anesthetized dogs.
The subject of experiment [7] is Canis familiaris. Kind of experiment: Percent change in FRP from control at active dose 10 mg/kg administered intraperitoneally in anesthetized dogs. The class given is functional, Canis lupus familiaris. The conditions noted are these: route intraperitoneal.
The test system of experiment [8] is Canis familiaris. Kind of experiment: Concentration at which maximum change in […] was observed from control value in anesthetized dogs; The maximum observed change APD95 from control value and concentration at 100 uM when this occurred. Type of experiment: functional, Canis lupus familiaris.
The subject of experiment [9] is Canis familiaris. Kind of experiment: Percent change in blood pressure (BP) from control at active dose 0.1-10 mg/kg administered intraperitoneally in anesthetized dogs. Type of experiment: functional, Canis lupus familiaris.
In experiment [10] the test system is Canis familiaris. Nature of the experiment: Percent change in blood pressure (BP) from control at active dose 10 mg/kg administered intraperitoneally in anesthetized dogs. The class given is functional, Canis lupus familiaris. The conditions noted are these: route intraperitoneal.
Experiment [11] deals with Canis familiaris. Nature of the experiment: Percent change in heart rate (HR) from control at active dose 0.1-10 mg/kg administered intraperitoneally in anesthetized dogs. The class given is functional, Canis lupus familiaris.
The subject of experiment [12] is Canis familiaris. Nature of the experiment: Percent change in FRP from control at active dose 0.1-10 mg/kg administered intravenously.
The test system of experiment [13] is Canis familiaris. Nature of the experiment: Percent change in heart rate (HR) from control at active dose 10 mg/kg administered intraduodenally. The conditions noted are these: route intraduodenal.
In experiment [14] the test system is Canis familiaris. Nature of the experiment: Percent change in blood pressure (BP) from control at active dose 1.0-10 mg/kg administered intraperitoneally in anesthetized dogs. Type of experiment: functional, Canis lupus familiaris.
The test system of experiment [15] is Canis familiaris. Kind of experiment: Percent change in blood pressure (BP) from control at active dose 30 mg/kg administered intraperitoneally in anesthetized dogs. Type of experiment: functional, Canis lupus familiaris. The conditions noted are these: route intraperitoneal.
For experiment [16], the system named is Canis familiaris. Kind of experiment: Percent change in heart rate (HR) from control at active dose 1.0-10 mg/kg administered intraperitoneally in anesthetized dogs. The class given is functional, Canis lupus familiaris.
Experiment [17] deals with Canis familiaris. Kind of experiment: Percent change in FRP from control at active dose 1.0-10 mg/kg administered intraperitoneally. Type of experiment: functional, Canis lupus familiaris.
Experiment [18] can be described thus: Ratio of number of active animals to number of treated at dose 30 mg/kg administered intraperitoneally in anesthetized dogs; No of animals tested=2. The class given is functional. The conditions noted are these: route intraperitoneal.
Experiment [19] is described as follows: Percent change in FRP from control at active dose 30 mg/kg administered intraperitoneally in anesthetized dogs. The class given is functional. The conditions noted are these: route intraperitoneal.
Experiment [20] has as its target Beta adrenergic receptor (Canis familiaris).
The test system of experiment [21] is Canis familiaris. Nature of the experiment: Percent change in heart rate (HR) from control at active dose 30 mg/kg administered intraduodenally. The conditions noted are these: route intraduodenal.
Experiment [22] relates to Canis familiaris. Nature of the experiment: Concentration at which maximum change in […] was observed from control value in anesthetized dogs; The maximum observed change APD95 from control value and concentration at 30 uM when this occurred. Type of experiment: functional, Canis lupus familiaris.
Experiment [23] concerns Canis familiaris. Nature of the experiment: Percent change in blood pressure (BP) from control at active dose 0.1-3.0 mg/kg administered intraperitoneally in anesthetized dogs. Type of experiment: functional, Canis lupus familiaris.
Experiment [24] has as its system Canis familiaris. Kind of experiment: Percent change in FRP from control at active dose 0.1-3.0 mg/kg administered intravenously.
The test system of experiment [25] is Canis familiaris. Kind of experiment: Percent change in heart rate (HR) from control at active dose 0.1-3.0 mg/kg administered intravenously in conscious dogs.

Chain of Beta-2 adrenergic receptor (P54833 whole entry): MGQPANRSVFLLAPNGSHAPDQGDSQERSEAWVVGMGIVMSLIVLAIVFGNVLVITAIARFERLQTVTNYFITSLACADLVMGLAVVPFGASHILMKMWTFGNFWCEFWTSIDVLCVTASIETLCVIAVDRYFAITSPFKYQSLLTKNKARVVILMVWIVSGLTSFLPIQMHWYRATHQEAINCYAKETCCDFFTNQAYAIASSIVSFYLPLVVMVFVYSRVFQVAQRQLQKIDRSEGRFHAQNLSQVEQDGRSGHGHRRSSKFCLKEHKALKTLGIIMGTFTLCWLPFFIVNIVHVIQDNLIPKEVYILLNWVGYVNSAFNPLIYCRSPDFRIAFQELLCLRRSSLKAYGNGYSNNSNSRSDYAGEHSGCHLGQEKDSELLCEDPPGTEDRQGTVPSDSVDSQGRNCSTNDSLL

Take `Cc1cccc(OCC(O)CNCCOc2ccc(-n3ccnc3)cc2)c1` (stereo unspecified): the negative logarithm of the IC50 (pIC50) in experiment [1] was 6.29. Besides, the “C20 APD95” value with Canis familiaris [2] stood at 10 µM. In addition, in the experiment with Canis familiaris [3], the Max delta is 35%. Also, the Change was 9% in the experiment on Canis familiaris [4], -12% in the experiment on Canis familiaris [5] and -4% with Canis familiaris [6].
`CS(=O)(=O)Nc1ccc(C(O)CNCCOc2ccc(-n3ccnc3)cc2)cc1` (stereo unspecified) showed a pIC50 in [1] of 5.24. The Change was 24% in the experiment on Canis familiaris [7]; -4% in the experiment with Canis familiaris [9]; 17% with Canis familiaris [10]; 1% in the experiment with Canis familiaris [11]; 15% in the experiment on Canis familiaris [12]; -18% in the experiment on Canis familiaris [13]. Moreover, the “C20 APD95” value in the experiment on Canis familiaris [2] was less than 1 µM. In the experiment on Canis familiaris [8], this compound displayed a Max delta of 155%.
`O=C(NCCNCC(O)COc1cccc2ccccc12)c1ccc(-n2ccnc2)cc1` (stereo unspecified) showed a C20 with Canis familiaris [2] of 1.8 µM. Also, in the experiment with Canis familiaris [8], the Max delta is listed as 57%. Further, the Change was -5% in the experiment with Canis familiaris [14]; 16% in the experiment with Canis familiaris [15]; 24% in the experiment with Canis familiaris [16]; 6% with Canis familiaris [17]; 13% in [19]; -15% in the experiment with Canis familiaris [21]. For the same compound, in experiment [18], the Ratio came to 2. In experiment [20], this compound came in with an IC50 of 0.42 µM.
Compound `CS(=O)(=O)Nc1ccc(OC[C@@H](O)CNCCOc2ccc(-n3ccnc3)cc2)cc1` (stereo in doubt; (S)-1) [ERSENTILIDE] showed a pIC50 in experiment [1] of 4.30. Besides, in the experiment with Canis familiaris [2], the “C20 APD95” value stood at 1.8 µM. For the same compound, the Max delta with Canis familiaris [22] turned out to be 73%. Also, the Change with Canis familiaris [23] is reported as 4%; in the experiment on Canis familiaris [24] it was 5%; with Canis familiaris [25], -2%.
